Measurements from patent US11091522B2, “Peptidomimetic macrocycles and uses thereof” (priority 2018, dated 2021).
Entries after “also recorded” stand apart in the source; their conditions may differ.

Key:
MCF7 breast cancer cells = test: Cellular senescence, β-galactosidase substrate X-gal, MCF7; assay type: cell-based, human; settings: 0.3 μM each agent, 7 days
Text: The cells were then washed and visualized with β-galactosidase substrate X-gal.

[1] = test system: advanced solid tumors or lymphomas; test: Phase 1/2a clinical study of AP1 alone or with palbociclib
[2] = test system: cytochrome P450 (CYP) enzymes; test: Inhibition or induction of cytochrome P450 enzymes; assay type: in vitro ADME; settings: clinically-relevant concentrations
[3] = Patient 001-005, cohort 1, Liposarcoma, MDM2 CN 276
[4] = Patient 009-116, cohort 7b, Retroperitoneal liposarcoma, MDM2 CN 25

Structure (SMILES): CC(=O)N[C@@H](CC(C)C)C(=O)N[C@H](C(=O)N[C@@H](Cc1ccccc1)C(=O)N[C@]1(C)CCCCCC/C=C\CCC[C@@](C)(C(=O)N[C@@H](C)C(=O)N[C@@H](C)C(=O)N[C@@H](C)C(=O)N[C@@H](C)C(=O)N[C@@H](C)C(=O)N[C@H](C)C(N)=O)NC(=O)[C@H](CC(C)C)NC(=O)[C@H](CCC(N)=O)NC(=O)[C@H](C)NC(=O)[C@H](Cc2c[nH]c3ccccc23)NC(=O)[C@H](Cc2ccc(O)cc2)NC(=O)[C@H](CCC(=O)O)NC1=O)[C@@H](C)O [AP1]
- cellular senescence (MCF7 breast cancer cells): induced cellular senescence
- DLTs ([1]; DL-6A (3.1 mg/kg), six DLT-evaluable patients): only one DLT was observed (fatigue)
- Best % Change from Baseline [1, 3]: 11.6%
- Best Overall Response [1, 3]: CDP
- Best % Change from Baseline ([1]; Patient 001-015, cohort 3b, Leiomyosarcoma, MDM2 CN 99): 0%
- Best % Change from Baseline ([1]; Patient 001-115, cohort 7a, Breast, MDM2 CN 11): −13.3%
- Best % Change from Baseline ([1]; Patient 006-053, cohort 4b, Liposarcoma, MDM2 CN 100): 15.8%
- Best % Change from Baseline ([1]; Patient 006-093, cohort 6b, Liposarcoma, MDM2 CN 48): 0%
- Best % Change from Baseline ([1]; Patient 006-096, cohort 7b, Well differentiated liposarcoma, MDM2 CN 118): 9.8%
- Best % Change from Baseline ([1]; Patient 006-098, cohort 6b, Gastric adenocarcinoma, MDM2 CN 23): 15.8%
- Best % Change from Baseline ([1]; Patient 009-085, cohort 6a, Bladder carcinoma, MDM2 CN 72): 28.8%
- Best % Change from Baseline [1, 4]: 11%
- Best Overall Response [1, 4]: CDP
- Best % Change from Baseline ([1]; Patient 009-120, cohort 7a, Atypical lipomatous tumor, MDM2 CN 49): −36.9%
- drug-related AE Grade ≥2 ([1]; patients, DL-3B): neutropenia
- drug-related AE Grade ≥2 ([1]; patients, DL-4A): fatigue
- DLTs ([1]; patients, DL-7A (DR-7A), two DLTs): hypotension and hepatobiliary laboratory abnormalities
- DLTs ([1]; patients, DR-7A-2, two DLTs): anemia and neutropenia
- inhibition or induction of cytochrome P450 (CYP) enzymes [2]: negligible; also recorded: low likelihood of induction or inhibition
